Consider 19 compounds from patent publication US9617244B2, “Antibacterial quinoline derivatives” (JANSSEN PHARMACEUTICA NV, priority 2012, dated 2017).

In brackets after ≈: the same amount, converted by molar mass.

The subject of experiment [1] is Mycobacterium smegmatis (ATCC607). Put plainly: In-vitro anti-bacterial activity against strain M. Smegmatis ATCC607. It counts as cell-based. Particulars: 90% inhibitory concentration for bacterial growth, Alamar Blue fluorescence; for IC90 MSM 607: 48 hours; for IC90: Mycolicibacterium smegmatis, ATCC607, 48 h, read-out: IC90 MSM 607. An outline of the steps: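 IC90 (μg/ml) derived from Alamar Blue fluorescence (530/590 nm) after 48 h growth at 37 °C under 5% CO2. About 250 CFU per well in Mueller-Hinton broth faced five-fold serial compound dilutions in BSA-containing wells.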
(In general: Resazurin is reduced to fluorescent resorufin, in cell work by metabolically active cells.)

The subject of experiment [2] is Staphylococcus aureus (ATCC29213). As to the kind of experiment: In-vitro anti-bacterial activity, microtitre plate assay, IC90 determination (non-mycobacterial strains). It counts as cell-based. Particulars: 90% inhibitory concentration for bacterial growth, resazurin fluorescence; for IC90 STA B29213: 24 hours; for IC90: Staphylococcus aureus, ATCC29213, 24 h, read-out: IC90 STA B29213. In a few lines:
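Growth inhibition measured fluorometrically with resazurin (530/590 nm) after overnight 37 °C incubation under normal atmosphere. Bacteria added at roughly 100 TCID50 per well in Mueller-Hinton broth to five-fold compound dilution series; IC90 reported in μg/ml.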

For the compound `Cc1cc(F)ccc1C1CC(O)(C(c2cccc(Cl)c2)c2cc3cc(S(C)(=O)=O)ccc3[nH]c2=O)CCN1` (centres unmarked) [Compound 269], in experiment [1], the “IC90 MSM 607” value was over 14.75 µg/mL. In addition, in experiment [2], the “IC90 STA B29213” value is over 14.75 µg/mL.

As to `COc1nc2ccc(Cl)cc2cc1C(c1ccc(S(C)(=O)=O)cc1)C1(O)CCNC(c2ccc(F)cc2C)C1` (centres unmarked) [Compound 369], the “IC90 MSM 607” value in experiment [1] was 4.57 µg/mL (≈ 8.03 µM). Further, in experiment [2], the “IC90 STA B29213” value is 9.12 µg/mL (≈ 16 µM).

For the compound `O=c1[nH]c2ccc(Br)cc2cc1C(c1ccc(Cl)cc1)C1(O)CCNC(CC2CCCCC2)C1` (centres unmarked) [Compound 6], the “IC90 MSM 607” value in experiment [1] stood at 9.18 µg/mL (≈ 16.9 µM). In experiment [2], the “IC90 STA B29213” value was 1.83 µg/mL (≈ 3.36 µM).

Take `COc1nc2ccc(Cl)cc2cc1C(c1ccc(Cl)cc1)C1(O)CCNC(c2ccc3ccccc3c2)C1` (centres unmarked) [Compound 442]: the “IC90 MSM 607” value in experiment [1] is 3.60 µg/mL (≈ 6.62 µM). In addition, in experiment [2], the “IC90 STA B29213” value was determined as 11.37 µg/mL (≈ 20.9 µM).

Turning to `COc1nc2ccc(C(=O)O)cc2cc1C(c1ccc(Cl)cc1)C1(O)CCNC(Cc2ccccc2)C1` (centres unmarked) [Compound 118], the IC90 in experiment [1] and in experiment [2] was over 20.6 µg/mL throughout.

Turning to `COc1nc2ccc(SC)cc2cc1C(c1ccccc1)C1(O)CCNC(c2ccc(F)cc2C)C1` (centres unmarked) [Compound 196], the “IC90 MSM 607” value in experiment [1] is 2.52 µg/mL (≈ 5.01 µM). Further, the “IC90 STA B29213” value in experiment [2] is 3.17 µg/mL (≈ 6.31 µM).

For `CSc1ccc2[nH]c(=O)c(C(c3ccc(Cl)cc3)C3(O)CCNC(c4ccc(F)cc4C)C3)cc2c1` (centres unmarked) [Compound 266], the concentration for an effect of 90% (IC90) (commonly the point of the concentration-response curve where the effect stands at 90%) in experiment [1] worked out at 2.22 µg/mL (≈ 4.24 µM); in experiment [2], 2.5 µg/mL (≈ 4.78 µM).

Regarding `O=c1[nH]c2ccc(Br)cc2cc1C(c1ccc(Cl)cc1)C1(O)CCNCC1Cc1cccc(F)c1` (centres unmarked) [Compound 49], the “IC90 MSM 607” value in experiment [1] came out at 1.79 µg/mL (≈ 3.22 µM). In addition, the IC90 in experiment [2] worked out at 2.25 µg/mL (≈ 4.05 µM).

For the compound `Cc1cc(F)ccc1C1CC(O)(C(c2ccc(Cl)cc2)c2cc3cc(S(C)(=O)=O)ccc3[nH]c2=O)CCN1` (centres unmarked) [Compound 221], the “IC90 MSM 607” value in experiment [1] amounted to 2.96 µg/mL (≈ 5.33 µM). In experiment [2], the “IC90 STA B29213” value was determined as 3.73 µg/mL (≈ 6.72 µM).

As for `O=c1[nH]c2ccc(Br)cc2cc1C(c1ccc(Cl)cc1)C1(O)CCNC(Cc2ccc(F)cc2F)C1` (centres unmarked) [Compound 317], in experiment [1], the “IC90 MSM 607” value worked out at 1.92 µg/mL (≈ 3.35 µM). The “IC90 STA B29213” value in experiment [2] was 1.92 µg/mL (≈ 3.35 µM).

As for `O=c1[nH]c2ccc(Br)cc2cc1C(c1ccc(Cl)cc1)C1(O)CCNCC1Cc1cccc(F)c1` (centres unmarked) [Compound 229], the “IC90 MSM 607” value in experiment [1] was determined as 3.31 µg/mL (≈ 5.95 µM). Besides, the “IC90 STA B29213” value in experiment [2] stood at 1.86 µg/mL (≈ 3.35 µM).

On to `O=c1[nH]c2ccc(Br)cc2cc1C(c1ccc(Cl)cc1)C1(O)CCNC(Cc2ccc(F)cc2F)C1` (centres unmarked) [Compound 315], for which the “IC90 MSM 607” value in experiment [1] came out at 3.84 µg/mL (≈ 6.69 µM). Besides, the “IC90 STA B29213” value in experiment [2] came to 3.84 µg/mL (≈ 6.69 µM).

Regarding `COc1nc2ccc(SC)cc2cc1C(c1ccc(Cl)cc1)C1(O)CCNCC1(C)C` (centres unmarked) [Compound 396], the IC90 in experiment [1] and in experiment [2] was 5.75 µg/mL (≈ 12.6 µM) throughout.

As for `COc1nc2ccc(Br)cc2cc1C(c1cccc(Cl)c1)C1(O)CCNC(c2ccc(F)cc2C)C1` (centres unmarked) [Compound 149], in experiment [1], the “IC90 MSM 607” value is 2.52 µg/mL (≈ 4.42 µM). In addition, the “IC90 STA B29213” value in experiment [2] was determined as 5.63 µg/mL (≈ 9.88 µM).

On to `COc1nc2ccc(Cl)cc2cc1C(c1ccc(Cl)cc1)C1(O)CCNC(c2ccccc2)C1` (centres unmarked) [Compound 405], for which, in experiment [1], the “IC90 MSM 607” value was 2.63 µg/mL (≈ 5.33 µM). For the same compound, the “IC90 STA B29213” value in experiment [2] was 5.26 µg/mL (≈ 10.7 µM).

On to `COc1nc2ccc(Cl)cc2cc1C(c1ccc(Cl)cc1)C1(O)CCNC(CNc2cccnc2)C1` (centres unmarked) [Compound 469], for which the values for the IC90 in experiment [1] and in experiment [2] were 4.16 µg/mL (≈ 7.95 µM) and 8.3 µg/mL (≈ 15.9 µM), respectively.

Regarding `CS(=O)(=O)c1ccc2[nH]c(=O)c(C(c3ccc(Cl)cc3)C3(O)CCN[C@@H](Cc4ccc(F)c(F)c4)C3)cc2c1` (stereo in doubt) [Compound 208], the “IC90 MSM 607” value in experiment [1] turned out to be 9.57 µg/mL (≈ 16.7 µM). Besides, the “IC90 STA B29213” value in experiment [2] worked out at 7.60 µg/mL (≈ 13.3 µM).

Regarding `CSc1ccc2[nH]c(=O)c(C(c3cccc(Cl)c3)C3(O)CCNC(c4ccc(F)cc4C)C3)cc2c1` (centres unmarked) [Compound 162], in experiment [1], the “IC90 MSM 607” value was determined as 2.49 µg/mL (≈ 4.76 µM). The “IC90 STA B29213” value in experiment [2] was found to be 3.52 µg/mL (≈ 6.73 µM).

As to `CSc1ccc2[nH]c(=O)c(C(c3ccc(Cl)cc3)C3(O)CCNC(c4ccccc4)C3)cc2c1` (centres unmarked) [Compound 233], in experiment [1], the “IC90 MSM 607” value worked out at 1.32 µg/mL (≈ 2.69 µM). For the same compound, the “IC90 STA B29213” value in experiment [2] was 1.67 µg/mL (≈ 3.4 µM).
